Structures can show the parent of a compound that is named as a salt.
Columns and labels:
in vivo = settings: Brown Norway, iv
Experimental: This intravenous dosing solution is administered to a Brown Norway rat. After a given interval from the administration, for example, 24, 72 and 168 hours after the administration, blood is collected. Then, the rat is euthanized while the eyeballs are excised. A posterior eye tissue such as the choroid and/or the sclera, the retina, or the optic nerve is harvested therefrom. A given amount of an aqueous solution containing an organic solvent (e.g., a 50 vol % methanol solution) is added to the harvested posterior eye tissue, which is then homogenized, for example, to prepare an assay sample. The drug concentration in this assay sample can be measured using a liquid chromatograph-tandem mass spectrometer (LC/MS/MS) to measure the compound concentration in the posterior eye tissue in the case of systemic administration. The elimination half-life of the compound in the posterior eye tissue can be further calculated from time-dependent change in compound concentration in the posterior eye tissue.
Each compound was dissolved in DMA. […] Each intravenous dosing solution was administered (0.5 mL/kg) to the tail vein of each Brown Norway rat. Twenty-four, 72 and 168 hours after the administration, blood was collected. Then, the animal was euthanized, and the eyeballs were excised. The eyeballs were washed, and a choroid/sclera sample was then harvested.
A given amount of a 50 vol % methanol solution was added to the harvested choroid/sclera sample, which was then homogenized. Acetonitrile was further added thereto, and the mixture was stirred. The sample was centrifuged, and the supernatant was harvested. A 0.1 vol % formic acid solution was added thereto to prepare an assay sample. The drug concentration in the assay sample was measured using a liquid chromatograph-tandem mass spectrometer (LC/MS/MS).

[1] = Test Example 3: pharmacokinetics, single ocular instillation to rat, concentration in choroid/sclera; assay type: in vivo, Brown Norway rat; settings: rats, 4 hours
Experimental: The nanoparticle compositions of the present invention prepared in accordance with Examples 1 and 26 and the nanoparticle compositions of the present invention obtained in Examples 50, 52, 53, 54, 57 and 96 were evaluated for their pharmacokinetics when administered at a single dose by ocular instillation to rats. Each nanoparticle composition was administered at a single dose by ocular instillation to the right eyes of male Brown Norway rats (5 μL/eye, n=2 for each group). Four hours after the ocular instillation, each rat was euthanized, and the right eyeball was excised. The eyeball was washed, and a choroid/sclera sample was then harvested.
(§1) The sample was centrifuged, and the supernatant was harvested. A 10 mmol/L ammonium acetate solution was added thereto to prepare an assay sample.

[2] = Test Example 6: pharmacokinetics, single ocular instillation to cynomolgus monkey, concentration in choroid; assay type: in vivo; settings: cynomolgus monkeys
Experimental: The nanoparticle composition of the present invention prepared according to Example 1 and the microparticle composition prepared according to Comparative Example 1 were evaluated for their pharmacokinetics when administered at a single dose by ocular instillation to male cynomolgus monkeys. The nanoparticle composition of the present invention prepared according to Example 1 was administered by ocular instillation (50 μL/eye) to the right eye of each animal, while the microparticle composition prepared according to Comparative Example 1 was administered by ocular instillation (50 μL/eye) to the left eye thereof. Four hours or 48 hours (n=2 for each point in time) after the ocular instillation, blood was collected. […] The eyeballs were washed, and a choroid tissue was then harvested.
as §1

[3] = Test Example 1: pharmacokinetics, single ocular instillation to rat, concentration in choroid/sclera; assay type: in vivo, Brown Norway rat; settings: nanoparticle composition, mean particle size 1000 nm or smaller
Experimental: The nanoparticle compositions of the present invention obtained in Examples 19 and 24 and the microparticle compositions obtained in Comparative Examples 3 and 4 were evaluated for their pharmacokinetics when administered at a single dose by ocular instillation (4 to 12 μL/eye, n=2 for each group) to rats. Each nanoparticle composition was administered at a single dose by ocular instillation to the right eyes of male Brown Norway rats. Four to 7 hours after the ocular instillation, each rat was euthanized, and the right eyeball was excised. The eyeball was washed, and an eyeball tissue sample (choroid/sclera) was then harvested.
as §1

[4] = Test Example 5: pharmacokinetics, single ocular instillation to rabbit, compound III in choroid/retina; assay type: in vivo, Kbl:Dutch rabbit; settings: rabbits, all particle sizes evaluated
Experimental: The nanoparticle compositions obtained in Reference Examples 11 to 13 and the microparticle composition prepared according to Comparative Example 1 were evaluated for their pharmacokinetics when administered at a single dose by ocular instillation (20 μL/eye) to Kbl:Dutch rabbits. Each of the nanoparticle compositions obtained in Reference Examples 11 to 13 and the microparticle composition prepared according to Comparative Example 1 was administered at a single dose by ocular instillation to the left eyes of the animals (n=3 for each condition). 1.5 hours after the ocular instillation, each animal was euthanized, and the eyeballs were excised. The eyeballs were washed, and a choroid/retina sample was then harvested.
as §1

[5] = Test Example 10: pharmacokinetics of compounds IV to VIII, single ocular instillation to rat, concentration in choroid/sclera; assay type: in vivo, Brown-Norway rat; settings: rats, 1.5 hours
Experimental: 1.5 hours after the ocular instillation, blood was collected. Then, the animal was euthanized, and both the eyeballs were excised.
The sample was centrifuged, and the supernatant was harvested.

[6] = rat, 0.2 mg/kg, Half-life in choroid and sclera

`COc1cc2ncnc(Nc3cccc(Cl)c3)c2cc1OC` [AG-1478, N-(3-chlorophenyl)-N-(6,7-dimethoxyquinazolin-4-yl)amine] gave a half-life (in vivo; rat, 0.05 mg/kg, Half-life in choroid and sclera) of 42.8 h.
Compound `COc1cc2ncnc(Nc3cccc(Cl)c3F)c2cc1OC(=O)N1CCN(C)C[C@H]1C` [AZD-3759, 4-[(3-chloro-2-fluorophenyl)amino]-7-methoxyquinazolin-6-yl (2R)-2,4-dimethylpiperazine-1-carboxylate] has a half-life (in vivo; [6]) of 120 h.
For `COc1cc2nccc(Oc3ccc(NC(=O)Nc4cc(C)on4)c(Cl)c3)c2cc1OC` [Compound II, N-[2-chloro-4-(6,7-dimethoxyquinolin-4-yloxy)phenyl]-N′-(5-methylisoxazol-3-yl)urea hydrochloride hydrate], the “transfer to the choroid and/or the sclera” value [1] was “high transfer to the choroid and/or the sclera”, the “concentration in the choroid, compound II vs regorafenib” value [2] was “much higher than that of regorafenib” and the “transfer to the choroid and/or the sclera” value [3] was “drastically enhanced transfer to the choroid and/or the sclera”.
For `CNC(=O)c1cc(Oc2ccc(NC(=O)Nc3ccc(Cl)c(C(F)(F)F)c3)c(F)c2)ccn1` [Compound III, 4-{4-[3-(4-chloro-3-trifluoromethylphenyl)-ureido]-3-fluorophenoxy}pyridine-2-carboxylic acid methylamide], the “transfer to the choroid” value [4] was “very low”.
With `COc1cc2c(Oc3ccc4[nH]c(C)cc4c3F)ccnc2cc1OCC1(N)CC1` [Compound IV, 1-[[4-[(4-fluoro-2-methyl-1H-indol-5-yl)oxy]-6-methoxyquinolin-7-yl]oxymethyl]cyclopropan-1-amine] the half-life (in vivo; [6]) was 141 h and the “transfer to the choroid and/or the sclera, nanoparticle vs microparticle composition” value (“transfer … vs microparticle composition” below) [5] was “moderately improved transfer”.
`COc1cc2nccc(Oc3ccc(NC(=O)NC4CC4)c(Cl)c3)c2cc1C(N)=O` [Compound V, 4-[3-chloro-4-(cyclopropylcarbamoylamino)phenoxy]-7-methoxyquinoline-6-carboxamide] gave a half-life (in vivo; [6]) of 42.3 h.
For `COC(=O)c1ccc2c(c1)NC(=O)/C2=C(\Nc1ccc(N(C)C(=O)CN2CCN(C)CC2)cc1)c1ccccc1` [Compound VI, methyl (3Z)-3-[({4-[N-methyl-2-(4-methylpiperazin-1-yl)acetamido]phenyl}amino)(phenyl)methylidene]-2-oxo-2.3-dihydro-1H-indole-6-carboxylate], the half-life (in vivo; [6]) was 194 h and the “transfer … vs microparticle composition” value [5] was “did not differ in transfer to the choroid and/or the sclera”.
With `COc1cc2ncnc(Nc3ccc(F)c(Cl)c3)c2cc1NC(=O)/C=C/CN1CCCCC1` [Compound VII, (E)-N-[4-(3-chloro-4-fluoroanilino)-7-methoxyquinazolin-6-yl]-4-piperidin-1-ylbut-2-enamide] the “Half-life in choroid and sclera” value (in vivo; rat, 0.2 mg/kg) was 486 h, the half-life (in vivo; [6]) was 918 h and the “transfer … vs microparticle composition” value [5] was “drastically improved transfer”.
For `C=CC(=O)Nc1ccc2ncnc(Nc3ccc(OCc4cccc(F)c4)c(Cl)c3)c2c1` [Compound VIII, N-[4-[[3-chloro-4-[(3-fluorobenzyl)oxy]phenyl]amino]quinazolin-6-yl]acrylamide], the “Half-life in choroid and sclera” value (in vivo; rat, 0.2 mg/kg) was 40.1 h, the half-life (in vivo; [6]) was 52.9 h and the “transfer … vs microparticle composition” value [5] was “drastically improved transfer”.
For `C=CC(=O)Nc1cccc(Oc2nc(Nc3ccc(N4CCN(C)CC4)c(F)c3)nc3[nH]ccc23)c1` [avitinib], the half-life (in vivo; in vivo, 0.2 mg/kg, Half-life in choroid and sclera, EGFR inhibitors, intravenous single dose 0.2 mg/kg) was 85.5 h.
For `CNC(=O)c1ccccc1Sc1ccc2c(/C=C/c3ccccn3)n[nH]c2c1` [axitinib], the half-life (in vivo; [6]) was 57.4 h.
`COc1cc(N2CCC(N3CCN(C)CC3)CC2)ccc1Nc1ncc(Cl)c(Nc2ccccc2P(C)(C)=O)n1` [brigatinib] gave a half-life (in vivo; rat, 0.1 mg/kg) of 137 h.
With `COc1cc2nccc(Oc3ccc(NC(=O)C4(C(=O)Nc5ccc(F)cc5)CC4)cc3)c2cc1OC` [cabozantinib] the half-life (in vivo; in vivo, 0.2 mg/kg, Half-life in choroid and sclera, VEGF receptor inhibitors, intravenous single dose 0.2 mg/kg) was 65.8 h.
Compound `CNC(=O)c1c(C)oc2cc(Oc3ncnc4cc(OC)c(OC)cc34)ccc12` [fruquintinib] has a half-life (in vivo; [6]) of 32.5 h.
`COCCNCc1ccc(-c2cc3nccc(Oc4ccc(NC(=S)NC(=O)Cc5ccc(F)cc5)cc4F)c3s2)nc1` [glesatinib] gave a half-life (in vivo; [6]) of 132 h.
`C#Cc1cccc(Nc2ncnc3cc4c(cc23)OCCOCCOCCO4)c1` [icotinib] showed a half-life (in vivo; [6]) of 64.8 h.
Compound `CS(=O)(=O)CCNCc1ccc(-c2ccc3ncnc(Nc4ccc(OCc5cccc(F)c5)c(Cl)c4)c3c2)o1` [lapatinib] has a half-life (in vivo; [6]) of 246 h.
With `Cc1cc(C(=O)Nc2nc3cccc(Cl)c3n2[C@@H]2CCCCN(C(=O)/C=C/CN(C)C)C2)ccn1` [nazartinib] the half-life (in vivo; [6]) was 65.4 h.
Work on `C=CC(=O)N1CCC(Oc2cc3c(Nc4ccc(Cl)c(Cl)c4F)ncnc3cc2OC)CC1` [poziotinib] yielded a half-life (in vivo; [6]) of 31.9 h.
`COc1cc2c(Nc3ccc(Cl)c(Cl)c3F)ncnc2cc1OC[C@@H]1C[C@@H]2CN(C)C[C@@H]2C1` [tesevatinib] showed a half-life (in vivo; [6]) of 305 h.
In the case of `C[C@@H]1COC(Nc2ccc3ncnc(Nc4ccc(OCc5nccs5)c(Cl)c4)c3c2)=N1` [varlitinib], the half-life (in vivo; [6]) is reported as 46.1 h.

From patent publication US10894043B2, “Pharmaceutical composition” (Kyowa Kirin Co., Ltd., priority 2016, dated 2021)
